Converted amounts (≈) assume the structure as drawn.
Tests used:
[1] = target: T1, Human GLP-1R (Homo sapiens, UniProt P43220); assay: GLP-1R agonistic activity, HTRF cAMP assay in 293A GFP-GLP-1R cells; format: cell-based; conditions: result in words
T1 construct: expressed in transfected cells; host or cells: 293A cells stably expressing GLP-1R-GFP
From the text: The method was a competitive immunoassay.

[2] = physchem
[3] = Dynamic solubility; conditions: for Dynamic solubility in water: 37°C±2°C
[4] = Equilibrium solubility; format: physicochemical; conditions: 37°C
Description: After 24 hours, samples were taken. The samples were centrifuged for separation, and the supernatant after filtration was used for solubility determination.

[5] = Hygroscopicity by DVS; format: physicochemical; conditions: 25°C, 80%RH
[6] = Solid-state stability, long-term and accelerated conditions; format: physicochemical; conditions: for Purity / purity decrease: 10 days
From the text: The free Compound I was in a crystalline form, and had the XRPD pattern indicated by the arrow in Figure 50.

[7] = High-temperature stability test; format: physicochemical
[8] = High-humidity stability; format: physicochemical
[9] = Pressure stability; format: physicochemical
[10] = Suspension competition tests between Crystal Form A and Crystal Form P; format: physicochemical; conditions: room temperature and 50°C
Description: The suspensions of Compound Z that had been equilibrated for 2 hours under the corresponding temperature and solvent conditions were filtered to obtain saturated solutions of Compound Z under different temperature and solvent conditions, and then solid mixtures of Crystal Forms A and P of Compound Z were added. After the suspension competition was carried out for 1 day, the solids were separated for XRPD characterization.

[11] = Water activity stability of crystal form; format: physicochemical
[12] = FaSSGF, 37 °C, fassgf or other biorelevant, thermodynamic from solid
[13] = fassif, 37 °C, thermodynamic from solid
[14] = listed as Compound I in the amorphous form

T1 sequence (P43220 24-463): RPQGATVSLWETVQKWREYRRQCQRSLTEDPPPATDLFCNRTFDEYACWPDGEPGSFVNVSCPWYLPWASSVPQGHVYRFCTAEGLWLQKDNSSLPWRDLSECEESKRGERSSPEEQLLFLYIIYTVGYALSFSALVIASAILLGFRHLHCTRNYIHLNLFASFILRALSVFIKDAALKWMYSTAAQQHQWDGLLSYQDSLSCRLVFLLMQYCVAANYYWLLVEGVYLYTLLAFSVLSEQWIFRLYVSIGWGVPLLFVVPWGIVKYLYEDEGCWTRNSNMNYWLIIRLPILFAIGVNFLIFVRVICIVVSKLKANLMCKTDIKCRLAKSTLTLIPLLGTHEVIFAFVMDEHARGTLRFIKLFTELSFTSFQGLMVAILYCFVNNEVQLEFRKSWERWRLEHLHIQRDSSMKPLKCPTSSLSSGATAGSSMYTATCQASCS

O=C(O)c1ccc2nc(CN3CCC(c4cccc(OCc5ccc(C6COC6)cc5F)n4)CC3)n(C[C@@H]3CCO3)c2c1 [Compound I, (S)-2-((4-(6-((2-fluoro-4-(oxetan-3-yl)benzyl)oxy)pyridin-2-yl)piperidin-1-yl)methyl)-1-(oxetan-2-ylmethyl)-1H-benzo[d]imidazole-6-carboxylic acid]
agonistic effect on GLP-1R [1]: strong agonistic effect
solubility at 1 h [2, 12]: 100 µg/mL (≈ 170 µM)
solubility at 2 h [2, 12]: 90 µg/mL (≈ 153 µM)
solubility at 4 h [2, 12]: 110 µg/mL (≈ 188 µM)
solubility at 24 h [2, 12]: 100 µg/mL (≈ 170 µM)
solubility at 1 h [2, 13]: 40 µg/mL (≈ 68.2 µM)
solubility at 4 h [2, 13]: 120 µg/mL (≈ 205 µM)
solubility at 24 h [2, 13]: 210 µg/mL (≈ 358 µM)
XRPD of Residual Solid ([3]; FaSSGF, 1 h, listed as Free Compound I): Crystal Form A of the hydrochloride of Compound I
XRPD of Residual Solid ([3]; FaSSGF, 2 h, listed as Free Compound I): Crystal Form A of the hydrochloride of Compound I
Whether the crystal form changed ([3]; FaSSIF, 2 h): YES
XRPD of Residual Solid ([3]; FaSSIF, 2 h): Crystal Form A of Compound I
Dynamic solubility in water ([3]; FaSSIF, 2 h, listed as Free Compound I): 70 µg/mL
Whether the crystal form changed ([3]; FaSSIF, 4 h): YES
XRPD of Residual Solid ([3]; FaSSIF, 4 h): Crystal Form A of Compound I
Whether the crystal form changed ([3]; FaSSIF, 24 h): YES
XRPD of Residual Solid ([3]; FaSSIF, 24 h): Crystal Form A of Compound I
Whether the crystal form changed ([3]; H2O (water), 1 h): YES
XRPD of Residual Solid ([3]; H2O (water), 1 h): Crystal Form A of Compound I
Dynamic solubility in water ([3]; H2O (water), 4 h, listed as Free Compound I): 30 µg/mL
Dynamic solubility in water ([3]; H2O (water), 24 h, listed as Free Compound I): 30 µg/mL

O=C(O)c1ccc2nc(CN3CCC(c4cccc(OCc5ccc(C6COC6)cc5F)n4)CC3)n(C[C@@H]3CCO3)c2c1 [Amorphous form of Compound I]
solubility thermodynamic at 24 h ([4]; fassif, FaSSIF (fasted-state simulated intestinal fluid)): 150 µg/mL (≈ 256 µM)
solubility thermodynamic at 24 h ([4]; fessif, FeSSIF (fed-state simulated intestinal fluid)): 800 µg/mL (≈ 1360 µM)
solubility thermodynamic at 24 h ([4]; purified water, H2O (purified water)): 430 µg/mL (≈ 733 µM)
solubility thermodynamic at 24 h ([4]; sgf (simulated gastric fluid)): 410 µg/mL (≈ 699 µM)
hygroscopicity class [5, 14]: hygroscopic (a weight gain of 2%-15% indicates hygroscopic)
weight gain (water absorbed) [5, 14]: 4.029%

O=C(O)c1ccc2nc(CN3CCC(c4cccc(OCc5ccc(C6COC6)cc5F)n4)CC3)n(C[C@@H]3CCO3)c2c1 [Crystal Form A of Compound Z]
solubility thermodynamic at 24 h ([4]; FaSSIF (fasted-state simulated intestinal fluid)): 1190 µg/mL (≈ 2030 µM)
solubility thermodynamic at 24 h ([4]; FeSSIF (fed-state simulated intestinal fluid)): 1170 µg/mL (≈ 1990 µM)
solubility thermodynamic at 24 h ([4]; H2O (purified water)): 1940 µg/mL (≈ 3310 µM)
solubility thermodynamic at 24 h ([4]; SGF (simulated gastric fluid)): 1000 µg/mL (≈ 1700 µM)
hygroscopicity class [5]: slightly hygroscopic (a weight gain of 0.2%-2% indicates slightly hygroscopic)
weight gain (water absorbed) [5]: 1.696%
Purity ([6]; 25°C/60%RH): 97.38 % Area
Purity ([6]; 40°C/75%RH): 97.35 % Area
initial purity ([6]; HPLC, before storage): 97.41 % Area
purity decrease ([6]; accelerated conditions (40°C/75%RH)): no obvious decrease
purity decrease ([6]; long-term conditions (25°C/60%RH)): no obvious decrease
purity decrease after 1 day ([7]; 60°C, 1 day): no obvious decrease
purity after 1 day ([7]; HPLC purity (% area), 60°C, 1 day): 97.34%
initial purity ([7]; HPLC purity (% area), before 60°C): 97.41%
purity decrease ([8]; 90%RH, 10 days): no obvious decrease
initial purity ([8]; HPLC purity (% area), before high humidity): 97.41%
purity decrease ([9]; 1000 Mpa, 5 minutes): no obvious decrease
initial purity ([9]; HPLC purity (% area), before pressing): 97.31%
thermodynamic stability relative to Crystal Form P [10]: thermodynamically more stable
water activity aw at which the crystal form is stable [11]: ≤ 0.388
solubility at 1 h [2, 12]: 40 µg/mL (≈ 68.2 µM)
solubility at 2 h [2, 12]: 140 µg/mL (≈ 239 µM)
solubility at 4 h [2, 12]: 120 µg/mL (≈ 205 µM)
solubility at 2 h ([2]; fassif): 130 µg/mL (≈ 222 µM)
solubility at 1 h [2, 13]: 130 µg/mL (≈ 222 µM)
solubility at 4 h [2, 13]: 110 µg/mL (≈ 188 µM)
solubility at 24 h [2, 13]: 280 µg/mL (≈ 477 µM)
solubility at 1 h ([2]; water): 5500 µg/mL (≈ 9380 µM)
solubility at 2 h ([2]; water): 1380 µg/mL (≈ 2350 µM)
solubility ([2]; water, 37 °C, fassgf or other biorelevant, thermodynamic from solid): 60 µg/mL (≈ 102 µM)
Whether the crystal form changed ([3]; FaSSGF, 1 h): YES
XRPD of Residual Solid ([3]; FaSSGF, 1 h): Amorphous
Whether the crystal form changed ([3]; FaSSGF, 2 h): YES
XRPD of Residual Solid ([3]; FaSSGF, 2 h): Amorphous
Whether the crystal form changed ([3]; FaSSGF, 4 h): YES
XRPD of Residual Solid ([3]; FaSSGF, 4 h): Crystal Form A of the hydrochloride of Compound I
Whether the crystal form changed ([3]; FaSSGF, 24 h): YES
XRPD of Residual Solid ([3]; FaSSGF, 24 h): Crystal Form A of the hydrochloride of Compound I
Whether the crystal form changed ([3]; FaSSIF, 1 h): YES
XRPD of Residual Solid ([3]; FaSSIF, 1 h): Crystal Form A of Compound I
Whether the crystal form changed ([3]; H2O (water), 2 h): YES
XRPD of Residual Solid ([3]; H2O (water), 2 h): Crystal Form A of Compound I
Whether the crystal form changed ([3]; H2O (water), 4 h): YES
XRPD of Residual Solid ([3]; H2O (water), 4 h): Crystal Form A of Compound I
Dynamic solubility in water ([3]; H2O (water), 4 h, 240 min): 1230 µg/mL
Whether the crystal form changed ([3]; H2O (water), 24 h): YES
XRPD of Residual Solid ([3]; H2O (water), 24 h): Crystal Form A of Compound I
Dynamic solubility in water ([3]; H2O (water), 24 h, 1440 min): 1330 µg/mL

Reference: patent EP4635951A1, “SALT-TYPE GLP-1 RECEPTOR AGONIST, CRYSTAL FORM THEREOF, PREPARATION METHOD THEREFOR, PHARMACEUTICAL COMPOSITION THEREOF, AND USE THEREOF” (Hangzhou Zhongmeihuadong Pharmaceutical Co., Ltd., priority 2022, dated 2024)
